Source: US20090306159A1, “Inhibition of Intermediate-Conductance Calcium Activated Potassium Channels in the Treatment and/or Prevention of Atherosclerosis” (The Regents of the University, priority 2005, published 2009)
Values belong to the compound of their own block, whether it stands above or below them.

Experiments:
BKCa [1] = target: BKCa (Homo sapiens, UniProt Q12791); assay: Videomicroscopy: vasodilation of human coronary arterioles to BKCa opener; settings: endothelium-denuded human vessels, 3×10^-6 M, n=3
Chain of BKCa (Homo sapiens, UniProt Q12791) (Q12791 whole entry): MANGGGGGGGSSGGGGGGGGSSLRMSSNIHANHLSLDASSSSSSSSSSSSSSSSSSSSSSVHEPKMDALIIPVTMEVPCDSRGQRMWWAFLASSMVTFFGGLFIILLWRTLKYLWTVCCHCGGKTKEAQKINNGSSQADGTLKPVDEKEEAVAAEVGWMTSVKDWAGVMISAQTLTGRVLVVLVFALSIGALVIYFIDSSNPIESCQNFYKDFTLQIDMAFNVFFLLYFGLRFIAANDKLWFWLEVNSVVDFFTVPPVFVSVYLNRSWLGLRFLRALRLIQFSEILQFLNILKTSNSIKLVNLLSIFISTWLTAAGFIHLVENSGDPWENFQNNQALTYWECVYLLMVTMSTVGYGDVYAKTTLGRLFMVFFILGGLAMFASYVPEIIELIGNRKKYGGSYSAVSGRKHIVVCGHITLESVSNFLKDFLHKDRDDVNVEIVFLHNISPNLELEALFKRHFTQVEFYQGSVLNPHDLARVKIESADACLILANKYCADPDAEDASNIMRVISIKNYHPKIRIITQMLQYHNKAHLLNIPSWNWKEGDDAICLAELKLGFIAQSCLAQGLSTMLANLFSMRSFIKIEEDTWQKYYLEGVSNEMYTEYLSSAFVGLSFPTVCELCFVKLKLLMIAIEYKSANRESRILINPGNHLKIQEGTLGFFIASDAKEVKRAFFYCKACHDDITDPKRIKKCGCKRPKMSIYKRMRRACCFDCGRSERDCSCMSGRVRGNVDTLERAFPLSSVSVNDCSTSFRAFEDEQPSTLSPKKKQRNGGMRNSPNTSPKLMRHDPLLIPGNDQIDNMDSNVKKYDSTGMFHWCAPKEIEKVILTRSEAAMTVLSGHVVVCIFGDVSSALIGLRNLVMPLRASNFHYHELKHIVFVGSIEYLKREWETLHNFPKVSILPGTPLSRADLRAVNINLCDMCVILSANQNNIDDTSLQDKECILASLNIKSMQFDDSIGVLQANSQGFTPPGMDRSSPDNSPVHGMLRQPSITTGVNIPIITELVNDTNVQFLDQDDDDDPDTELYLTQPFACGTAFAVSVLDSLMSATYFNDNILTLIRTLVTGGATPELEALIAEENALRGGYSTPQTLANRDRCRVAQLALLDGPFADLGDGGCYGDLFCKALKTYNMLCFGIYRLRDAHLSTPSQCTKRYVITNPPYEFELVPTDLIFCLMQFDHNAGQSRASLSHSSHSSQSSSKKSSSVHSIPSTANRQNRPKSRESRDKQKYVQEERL
Chain of BKCa (Homo sapiens, UniProt Q12791) (Q16558 whole entry partner): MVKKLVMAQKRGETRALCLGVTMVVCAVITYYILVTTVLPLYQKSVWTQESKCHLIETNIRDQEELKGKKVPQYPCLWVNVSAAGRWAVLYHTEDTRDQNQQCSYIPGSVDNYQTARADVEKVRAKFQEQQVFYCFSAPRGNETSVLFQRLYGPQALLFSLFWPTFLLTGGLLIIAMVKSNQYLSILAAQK

BKCa [2] = target: BKCa (Mus musculus, UniProt Q08460); assay: Videomicroscopy: vasodilation of mouse carotid artery segments to BKCa opener; settings: endothelium-denuded carotid artery segments
Chain of BKCa (Mus musculus, UniProt Q08460) (Q08460 whole entry): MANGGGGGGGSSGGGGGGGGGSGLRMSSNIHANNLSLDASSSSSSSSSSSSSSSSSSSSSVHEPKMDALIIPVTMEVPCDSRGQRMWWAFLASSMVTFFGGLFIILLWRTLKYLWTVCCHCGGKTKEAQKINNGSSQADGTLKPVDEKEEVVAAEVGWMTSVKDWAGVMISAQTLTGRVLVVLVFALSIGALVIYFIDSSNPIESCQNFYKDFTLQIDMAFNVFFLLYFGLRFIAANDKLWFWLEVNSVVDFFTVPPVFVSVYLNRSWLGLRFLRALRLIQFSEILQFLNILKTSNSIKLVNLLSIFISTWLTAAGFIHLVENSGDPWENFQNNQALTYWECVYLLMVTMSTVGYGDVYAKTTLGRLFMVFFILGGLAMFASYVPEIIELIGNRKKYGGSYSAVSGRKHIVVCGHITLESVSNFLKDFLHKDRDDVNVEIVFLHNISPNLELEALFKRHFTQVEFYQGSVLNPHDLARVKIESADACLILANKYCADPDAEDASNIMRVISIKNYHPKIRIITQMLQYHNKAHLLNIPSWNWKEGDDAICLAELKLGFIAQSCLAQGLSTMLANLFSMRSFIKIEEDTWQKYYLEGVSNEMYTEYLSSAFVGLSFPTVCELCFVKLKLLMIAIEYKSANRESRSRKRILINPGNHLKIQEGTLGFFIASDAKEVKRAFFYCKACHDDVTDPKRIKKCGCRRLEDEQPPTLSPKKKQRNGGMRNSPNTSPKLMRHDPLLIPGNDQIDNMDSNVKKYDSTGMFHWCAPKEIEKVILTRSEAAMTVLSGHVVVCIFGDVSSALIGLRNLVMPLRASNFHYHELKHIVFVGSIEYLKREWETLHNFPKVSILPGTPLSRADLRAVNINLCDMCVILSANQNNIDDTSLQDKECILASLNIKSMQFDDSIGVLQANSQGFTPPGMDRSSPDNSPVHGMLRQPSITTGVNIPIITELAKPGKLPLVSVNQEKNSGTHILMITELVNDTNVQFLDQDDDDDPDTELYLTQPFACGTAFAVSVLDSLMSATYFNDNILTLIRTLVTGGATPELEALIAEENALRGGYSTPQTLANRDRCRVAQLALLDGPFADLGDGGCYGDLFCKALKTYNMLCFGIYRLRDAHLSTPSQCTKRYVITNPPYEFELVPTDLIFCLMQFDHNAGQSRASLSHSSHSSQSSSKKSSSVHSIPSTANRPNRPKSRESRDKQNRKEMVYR
Chain of BKCa (Mus musculus, UniProt Q08460) (Q8CAE3 whole entry partner): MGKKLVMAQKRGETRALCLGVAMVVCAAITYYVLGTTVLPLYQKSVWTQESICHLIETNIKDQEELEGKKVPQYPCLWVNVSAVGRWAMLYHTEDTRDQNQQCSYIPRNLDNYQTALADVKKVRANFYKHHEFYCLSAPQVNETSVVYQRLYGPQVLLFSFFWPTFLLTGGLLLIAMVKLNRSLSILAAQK

[3] = system: human coronary artery smooth muscle cells (HCSMCs); assay: Cell proliferation assay (cell count with hemocytometer) in PDGF-stimulated HCSMCs; type: cell-based; settings: for cell number of HCSMCs: 48 hours, n=7
Procedure: (§1) Cell proliferation assays: Cell proliferation assays were performed as previously reported. Briefly, quiescent HCSMCs seeded at a density of 4×10^4/well in 6-well plates were stimulated by 20 ng/mL PDGF in the presence or absence of 10^−7 M TRAM-34, a selective IKCa blocker. Forty eight hours after stimulation, the number of cells was counted with a hemocytometer (MARIENFELD, Lauda-Konigshofen Germany). In another set of experiments, a BrdU cell proliferation assay was also performed with quiescent cells in 96-well plates at a density of 1×10^4/well according to the manufacturer's instructions (Colorimetric Cell Proliferation ELISA, Roche, Penzberg Germany). In this study, BrdU (10^−5 M in medium) was applied 24 hours prior to the measurements.

[4] = system: human coronary artery smooth muscle cells (HCSMCs); assay: Transwell cell migration assay in HCSMCs; type: cell-based
Procedure: Cell migration assay: A Cell migration assay was carried out with the Transwell system (Corning, Acton, Mass.) as previously reported. Briefly, cells (3×10^5 cells/mL) were seeded onto the upper chamber of Transwells, and the lower chamber was filled with serum-free medium containing 20 ng/ml PDGF. TRAM-34 (10^−8˜10^−7 M) was added to both chambers. After 8-hour stimulation, migrated cells were fixed and stained with the Diff-Quick Stain (IMEB Inc. Chicago, Ill.) and counted under a microscope.

IKCa mRNA = assay: Real-time RT-PCR of IKCa mRNA in HCSMCs; type: cell-based, human; settings: PDGF 20 ng/ml, at 6 h, n=5
Description: (sense) and [NT] (antisense); for [NT] (sense) and [NT] (antisense).

[5] = system: human coronary artery smooth muscle cells (HCSMCs); assay: BrdU cell proliferation assay (DNA synthesis) in HCSMCs; type: cell-based
Procedure: as §1

ApoE knockout mice = assay: Development of atherosclerosis in ApoE knockout mice on high-cholesterol diet (long-term IKCa1 blockade); type: in vivo, mouse; settings: ApoE KO mice, long-term TRAM-34
Procedure: Mouse treatment: C57BL/6J male mice (wild type [WT] n=11 and ApoE deficient type [EKO] n=38, The Jackson Laboratory) were used. EKO mice were weaned at 4 weeks of age onto a high-cholesterol diet (1.3% cholesterol; TD 96121, Harian/Teklad) and treated with daily subcutaneous injection of TRAM-34 (120 mg/kg/day) or vehicle (peanut oil) for 12 weeks. Littermate war mice were used as the control group in the experiments. Mice were provided diet and water ad libitum and maintained on a 12-hour light/dark cycle. All animal experiments were conducted according to the Guidelines for Animal Experiments at Medical College of Wisconsin.
Histological analysis of atherosclerosis in mouse aortas: Isolation of aortas and quantification of atherosclerosis were performed as previously described. Briefly, aortas (from aortic arch to iliac bifurcation) were opened longitudinally, pinned onto a silicon-coated dish, fixed with 4% paraformaldehyde, and stained in 1.0% (v/w) Sudan III solution (The Science Company, Denver, Colo.). Images were acquired using a digital camera (C-755, Minolta), and the surface area of atherosclerotic lesions was measured as the percentage of total area of the opened aorta using imaging software, MetaMorph (Universal Imaging Corp).

c-fos = assay: Western blot of c-fos expression in HCSMCs; type: cell-based, human; settings: PDGF + TRAM-34
Description: Western blot analysis: Total cell lysates or membrane fractions were harvested and protein samples separated on an electrophoresis gel by SDS-PAGE and then transferred to a PVDF membrane. The gels were stained in Coomassie blue to confirm equal protein loading. Membranes were blocked with 10% nonfat dried milk, blotted with primary antibodies (BKCa α-subunit [Affinity BioReagents], c-fos [Santa Cruz, Inc.] and IKCa) and subsequently probed with a horseradish peroxidase-labeled donkey anti-rabbit antibody (1:5,000˜10,000 [Santa Cruz, Inc.]). The bound antibody was detected by chemiluminescence (ECL Plus, Amersham). The polyclonal primary antibody against human and mouse IKCa was obtained from sera of rabbits immunized using oligopeptides with following amino acids sequences; H-LNASYRSIGALNQVRC-NH2 (S4-5 of human and mouse IKCa).

[6] = Body weight, heart weight, blood pressure, heart rate, plasma cholesterol and deaths in treated mice; type: in vivo, mouse
Procedure: Mouse treatment: C57BL/6J male mice (wild type [WT] n=11 and ApoE deficient type [EKO] n=38, The Jackson Laboratory) were used. […] Littermate war mice were used as the control group in the experiments. Mice were provided diet and water ad libitum and maintained on a 12-hour light/dark cycle. All animal experiments were conducted according to the Guidelines for Animal Experiments at Medical College of Wisconsin.
Hemodynamic analysis of mice: At 16 weeks of age, mice were anesthetized, and right femoral arteries were cannulated for continuous measurement of arterial pressure and heart rate (pressure transducer; Bioresearch Center, Nagoya, Japan) and recorded continuously by computer for 30 min.
Plasma lipid analysis: Plasma was obtained by centrifugation of blood and stored at −80° C. until each assay was performed. Plasma cholesterol levels were analyzed by General Medical Laboratories (Madison, Wis.).

[7] = among the groups (WT, ApoE KO vehicle, ApoE KO TRAM-34)
[8] = long-term treatment, anesthetized mice

vasodilation (BKCa [1]; CAD subjects): 31±3%
vasodilation (BKCa [1]; non-CAD subjects): 56±6%
% max. dilation (BKCa [2]; ApoE KO mice): 9±3%
% max. dilation (BKCa [2]; WT mice, 10^-5 M): 55±10%
Compound: C=C[C@@]1(C)C=C2CC[C@@H]3[C@](C)(CCC[C@@]3(C)C(=O)O)[C@H]2CC1 [pimaric acid]

Compound: COc1ccc(Cl)cc1C(=O)NCCc1ccc(S(=O)(=O)NC(=O)NC2CCCCC2)cc1 [Glibenclamide, reference compound]
effect on PDGF-induced HCSMC proliferation ([3]; with PDGF, data not shown, n=4): had no effect

Compound: platelet-derived growth factor-BB [PDGF]
HCSMC migration ([4]; PDGF alone (20 ng/ml), 8-hour stimulation, n=10): 32±4 fold of control
cell number of HCSMCs ([3]; PDGF alone (20 ng/mL)): 1.6±0.1 fold of control
IKCa mRNA expression, max response (IKCa mRNA): 4.2±1.0 fold
DNA synthesis (BrdU incorporation) ([5]; PDGF alone, n=26): 2.8±0.3 fold of control

Compound: Clc1ccccc1C(c1ccccc1)(c1ccccc1)n1cccn1 [TRAM-34, 1-[(2-chlorophenyl)diphenylmethyl]-1H-pyrazole]
HCSMC migration ([4]; PDGF + TRAM-34, 8-hour stimulation, n=4): 2392 fold of control
accumulation of macrophages in the plaques (ApoE knockout mice): decreased
nitric oxide-mediated component of endothelium-dependent vasodilation (ApoE knockout mice): restored
plasma level of MCP-1 (ApoE knockout mice): reduced
plasma level of TNF-alpha (ApoE knockout mice): reduced
cell number of HCSMCs ([3]; PDGF + TRAM-34 at 10^-7 M): 1.1±0.1 fold of control
cell viability ([3]; PDGF+TRAM-34 or TRAM-34 alone, HCSMCs): did not affect cell viability
effect on HCSMC proliferation ([3]; in the absence of PDGF): had no effect
PDGF-induced up-regulation of c-fos protein (c-fos): markedly reduced
DNA synthesis (BrdU incorporation) ([5]; PDGF + TRAM-34, n=26): 2.2±0.2 fold of control
effect on DNA synthesis ([5]; TRAM alone, no PDGF, n=6): had no effect
deaths during treatment ([6]; 14-week treatment, unknown reasons, same in vehicle group): One mouse
plasma cholesterol levels ([6]; ApoE KO mice, TRAM-34 vs vehicle): no significant difference
body weight [6, 7]: no significant differences
heart weight [6, 7]: no significant differences
blood pressure [6, 8]: unaltered
heart rate [6, 8]: unaltered
